Among the data in patent publication US7659401B2, “Thiazolo[4,5-C]pyridine derivatives” (Hoffmann-La Roche Inc., priority 2005, dated 2010) are Ki values, retold here.

T1 sequence (P41594 21-1180 isoform P41594-2 limits assumed): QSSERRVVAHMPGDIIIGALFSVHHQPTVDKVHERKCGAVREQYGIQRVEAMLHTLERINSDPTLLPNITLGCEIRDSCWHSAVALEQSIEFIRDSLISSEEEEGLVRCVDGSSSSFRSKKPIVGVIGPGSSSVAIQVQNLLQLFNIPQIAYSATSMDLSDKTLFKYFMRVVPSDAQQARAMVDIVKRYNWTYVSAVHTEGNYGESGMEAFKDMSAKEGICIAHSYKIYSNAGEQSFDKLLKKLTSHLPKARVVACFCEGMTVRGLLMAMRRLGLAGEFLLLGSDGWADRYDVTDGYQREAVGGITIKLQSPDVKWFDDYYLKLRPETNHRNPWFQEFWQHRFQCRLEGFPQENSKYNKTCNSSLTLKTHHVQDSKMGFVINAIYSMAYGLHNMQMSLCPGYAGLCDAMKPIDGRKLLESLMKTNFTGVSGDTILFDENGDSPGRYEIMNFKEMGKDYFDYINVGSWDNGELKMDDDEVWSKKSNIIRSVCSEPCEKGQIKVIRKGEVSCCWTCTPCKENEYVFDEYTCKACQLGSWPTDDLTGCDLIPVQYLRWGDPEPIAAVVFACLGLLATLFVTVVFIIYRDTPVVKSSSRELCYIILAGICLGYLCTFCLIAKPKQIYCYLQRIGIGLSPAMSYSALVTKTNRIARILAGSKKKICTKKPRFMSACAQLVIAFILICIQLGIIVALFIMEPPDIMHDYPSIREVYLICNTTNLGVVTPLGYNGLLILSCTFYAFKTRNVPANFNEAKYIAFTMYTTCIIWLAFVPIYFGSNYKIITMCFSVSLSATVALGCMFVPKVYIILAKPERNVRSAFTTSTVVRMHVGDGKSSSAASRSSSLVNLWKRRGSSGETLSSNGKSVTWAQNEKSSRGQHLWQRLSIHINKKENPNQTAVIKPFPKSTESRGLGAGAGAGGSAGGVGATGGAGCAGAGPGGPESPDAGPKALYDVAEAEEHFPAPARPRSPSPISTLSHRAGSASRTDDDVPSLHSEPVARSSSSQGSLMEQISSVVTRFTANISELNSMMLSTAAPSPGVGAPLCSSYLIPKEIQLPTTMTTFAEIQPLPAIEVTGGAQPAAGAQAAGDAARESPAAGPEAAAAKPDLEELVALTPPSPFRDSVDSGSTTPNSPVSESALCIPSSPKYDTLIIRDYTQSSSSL

The assay has as its target T1, human mGlu 5a receptor (Homo sapiens, UniProt P41594).
T1 construct: expressed in transfected cells; host or cells: EBNA cells (transient transfection); cell membrane homogenates
Briefly: [3H]MPEP competition binding on membranes of EBNA cells transiently transfected with human mGlu 5a receptor. As to conditions: displacement of [3H]MPEP (2 nM), 1 h at 4° C., Ki=IC50/[1+L/Kd]. The method, then:
The pharmacological activity of the compounds was tested using the following method: For binding experiments, cDNA encoding human mGlu 5a receptor was transiently transfected into EBNA cells using a procedure described by Schlaeger and Christensen [Cytotechnology 15:1-13 (1998)]. Cell membrane homogenates were stored at −80° C. until the day of assay where upon they were thawed and resuspended and polytronised in 15 mM Tris-HCl, 120 mM NaCl, 100 mM KCl, 25 mM CaCl2, 25 mM MgCl2 binding buffer at pH 7.4 to a final assay concentration of 20 μg protein/well.
Saturation isotherms were determined by addition of twelve [^3H]MPEP concentrations (0.04-100 nM) to these membranes (in a total volume of 200 μL) for 1 h at 4° C. Competition experiments were performed with a fixed concentration of [^3H]MPEP (2 nM) and IC50 values of test compounds evaluated using 11 concentrations (0.3-10,000 nM). Incubations were performed for 1 h at 4° C.
At the end of the incubation, membranes were filtered onto unifilter (96-well white microplate with bonded GF/C filter preincubated 1 h in 0.1% PEI in wash buffer, Packard Bio-Science, Meriden, Conn.) with a Filtermate 96 harvester (Packard BioScience) and washed 3 times with cold 50 mM Tris-HCl, pH 7.4 buffer. Nonspecific binding was measured in the presence of 10 μM MPEP. The radioactivity on the filter was counted (3 min) on a Packard Top-count microplate scintillation counter with quenching correction after addition of 45 μl of microscint 40 (Canberra Packard S.A., Zürich, Switzerland) and shaking for 20 min.
For binding experiments the Ki values of the compounds tested are given. The Ki value is defined by the following formula: Ki=IC50/[1+L/Kd] in which the IC50 values are those concentrations of the compounds tested which cause 50% inhibition of the competing radioligand ([^3H]MPEP). L is the concentration of radioligand used in the binding experiment and the Kd value of the radioligand is empirically determined for each batch of membranes prepared.
Turning to `Cc1nc2c(Nc3cccc(Cl)c3)nccc2s1` [Example 1], the inhibition constant Ki was found to be 26 nM.
Under `Cc1nc(Nc2ncc(-c3cccnc3)c3sc(C)nc23)cs1` [Example 2, (2-Methyl-7-pyridin-3-yl-thiazolo[4,5-c]pyridin-4-yl)-(2-methyl-thiazol-4-yl)-amine] stands 37 nM; under `Cc1csc(Nc2ncc(-c3cccnc3)c3sc(C)nc23)n1` [Example 3, (2-Methyl-7-pyridin-3-yl-thiazolo[4,5-c]pyridin-4-yl)-(4-methyl-thiazol-2-yl)-amine], 42 nM; under `Cc1nc2c(Nc3ccc(F)cn3)ncc(-c3cccnc3)c2s1` [Example 4], 40 nM.
As to `Cc1nc2c(Nc3ccn(C)n3)ncc(-c3cccnc3)c2s1` [Example 5], the Ki came out at 167 nM.
With `Cc1csc(Nc2ncc(-c3cncnc3)c3sc(C)nc23)n1` [Example 9], the Ki amounted to 61 nM.
Under `Cc1nc(Nc2ncc(-c3ccnc(Cl)c3)c3sc(C)nc23)cs1` [Example 14, [7-(2-Chloro-pyridin-4-yl)-2-methyl-thiazolo[4,5-c]pyridin-4-yl]-(2-methyl-thiazol-4-yl)-amine] stands 45 nM; under `Cc1nccc(Nc2ncc(-c3cccc(S(C)(=O)=O)c3)c3sc(C)nc23)n1` [Example 17, [7-(3-Methanesulfonyl-phenyl)-2-methyl-thiazolo[4,5-c]pyridin-4-yl]-(2-methyl-pyrimidin-4-yl)-amine], 128 nM.
`Cc1csc(Nc2ncc(-c3cc(F)cc(F)c3)c3sc(C)nc23)n1` [Example 19, [7-(3,5-Difluoro-phenyl)-2-methyl-thiazolo[4,5-c]pyridin-4-yl]-(4-methyl-thiazol-2-yl)-amine]: the Ki was 29 nM.
Under `Cc1ccc(Nc2ncc(-c3cncc(F)c3)c3sc(C)nc23)nc1` [Example 20, [7-(5-Fluoro-pyridin-3-yl)-2-methyl-thiazolo[4,5-c]pyridin-4-yl]-(5-methyl-pyridin-2-yl)-amine] stands 87 nM.
